Source: PubChem BioAssay (NCI)
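Assay format: 96-well plates, 48-hour exposure. GI50 is the concentration that inhibits growth by half. TGI: concentration producing complete growth inhibition.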

Assays:
Assay in all cases: growth of human tumour cells (NCI), 48 h; in the data active = GI50 below about 0.43 µM; inactive = the rest
MDA-MB-231 breast = test system: MDA-MB-231 breast
OVCAR-4 ovarian = test system: OVCAR-4 ovarian
SR leukemia = test system: SR leukemia
PC-3 prostate = test system: PC-3 prostate
KM12 colon = test system: KM12 colon
HL-60(TB) leukemia = test system: HL-60(TB) leukemia
MCF7 breast = test system: MCF7 breast
ACHN renal = test system: ACHN renal
SN12C renal = test system: SN12C renal
T-47D breast = test system: T-47D breast
SNB-19 CNS = test system: SNB-19 CNS
MDA-MB-435 = test system: MDA-MB-435
NCI-H23 lung = test system: NCI-H23 lung
SF-539 CNS = test system: SF-539 CNS
IGROV1 ovarian = test system: IGROV1 ovarian
NCI-H460 lung = test system: NCI-H460 lung
SF-295 CNS = test system: SF-295 CNS
SK-MEL-28 melanoma = test system: SK-MEL-28 melanoma
MOLT-4 leukemia = test system: MOLT-4 leukemia
A498 renal = test system: A498 renal
OVCAR-5 ovarian = test system: OVCAR-5 ovarian
SW-620 colon = test system: SW-620 colon
LOX IMVI melanoma = test system: LOX IMVI melanoma
HT29 colon = test system: HT29 colon
HCC-2998 colon = test system: HCC-2998 colon
SK-MEL-5 melanoma = test system: SK-MEL-5 melanoma
M14 melanoma = test system: M14 melanoma
TK-10 renal = test system: TK-10 renal
COLO 205 colon = test system: COLO 205 colon
NCI/ADR-RES ovarian = test system: NCI/ADR-RES ovarian
UO-31 renal = test system: UO-31 renal
EKVX NSCLC = test system: EKVX NSCLC
OVCAR-8 ovarian = test system: OVCAR-8 ovarian
UACC-62 melanoma = test system: UACC-62 melanoma
UACC-257 melanoma = test system: UACC-257 melanoma
786-0 renal = test system: 786-0 renal
CCRF-CEM leukemia = test system: CCRF-CEM leukemia
RXF 393 renal = test system: RXF 393 renal
HOP-92 NSCLC = test system: HOP-92 NSCLC
A549 NSCLC = test system: A549 NSCLC
SNB-75 CNS = test system: SNB-75 CNS
SK-MEL-2 melanoma = test system: SK-MEL-2 melanoma
MALME-3M melanoma = test system: MALME-3M melanoma
U251 CNS = test system: U251 CNS
HCT-15 colon = test system: HCT-15 colon
HCT-116 colon = test system: HCT-116 colon
SF-268 CNS = test system: SF-268 CNS
RPMI-8226 leukemia = test system: RPMI-8226 leukemia
DU-145 prostate = test system: DU-145 prostate
BT-549 breast = test system: BT-549 breast
CAKI-1 renal = test system: CAKI-1 renal
OVCAR-3 ovarian = test system: OVCAR-3 ovarian
HOP-62 NSCLC = test system: HOP-62 NSCLC
NCI-H522 lung = test system: NCI-H522 lung
NCI-H226 lung = test system: NCI-H226 lung
K-562 leukemia = test system: K-562 leukemia
SK-OV-3 ovarian = test system: SK-OV-3 ovarian

COc1ccc([C@@H]2C(=O)N(c3cc(OC)c(OC)c(OC)c3)[C@H]2c2ccc(OC)c(O)c2)cc1
65200 nM: TGI (SK-OV-3 ovarian)
161 nM: TGI (SK-MEL-5 melanoma)
3200 nM: TGI (BT-549 breast)
27800 nM: TGI (OVCAR-8 ovarian)
59.8 nM: TGI (NCI/ADR-RES ovarian)
18900 nM: TGI (SF-295 CNS)
28900 nM: TGI (OVCAR-3 ovarian)
30500 nM: TGI (K-562 leukemia)
12000 nM: TGI (RPMI-8226 leukemia)
18500 nM: TGI (HCC-2998 colon)
25700 nM: TGI (SR leukemia)
> 100000 nM: TGI (MDA-MB-231 breast) | TGI (OVCAR-4 ovarian) | TGI (PC-3 prostate) | TGI (KM12 colon) | TGI (MCF7 breast) | TGI (SN12C renal) | TGI (T-47D breast) | TGI (SNB-19 CNS) | TGI (MDA-MB-435) | TGI (IGROV1 ovarian) | TGI (NCI-H460 lung) | TGI (SK-MEL-28 melanoma) | TGI (A498 renal) | TGI (OVCAR-5 ovarian) | TGI (SW-620 colon) | TGI (LOX IMVI melanoma) | TGI (TK-10 renal) | TGI (EKVX NSCLC) | TGI (UACC-257 melanoma) | TGI (786-0 renal) | TGI (CCRF-CEM leukemia) | TGI (A549 NSCLC) | TGI (SK-MEL-2 melanoma) | TGI (U251 CNS) | TGI (HCT-15 colon) | TGI (HCT-116 colon) | TGI (SF-268 CNS) | TGI (DU-145 prostate) | TGI (CAKI-1 renal) | TGI (HOP-62 NSCLC)
40800 nM: TGI (MALME-3M melanoma)
205 nM: TGI (COLO 205 colon)
58 nM: TGI (NCI-H522 lung)
23700 nM: TGI (UO-31 renal)
48800 nM: TGI (HOP-92 NSCLC)
48100 nM: TGI (M14 melanoma)
52.7 nM: TGI (HL-60(TB) leukemia)
51700 nM: TGI (SNB-75 CNS)
active: GI50 (MDA-MB-231 breast) 36.7 nM | GI50 (SR leukemia) 31.6 nM | GI50 (PC-3 prostate) 200 nM | GI50 (KM12 colon) 45.9 nM | GI50 (HL-60(TB) leukemia) 21.4 nM | GI50 (MCF7 breast) 38.1 nM | GI50 (ACHN renal) 84.7 nM | GI50 (SN12C renal) 41.3 nM | GI50 (SNB-19 CNS) 284 nM | GI50 (MDA-MB-435) 30.1 nM | GI50 (NCI-H23 lung) 47 nM | GI50 (SF-539 CNS) 22.1 nM | GI50 (IGROV1 ovarian) 63 nM | GI50 (NCI-H460 lung) 36 nM | GI50 (SF-295 CNS) 32.4 nM | GI50 (MOLT-4 leukemia) 38.2 nM | GI50 (OVCAR-5 ovarian) 49.8 nM | GI50 (SW-620 colon) 42.8 nM | GI50 (LOX IMVI melanoma) 37.6 nM | GI50 (HT29 colon) 43.1 nM | GI50 (HCC-2998 colon) 259 nM | GI50 (SK-MEL-5 melanoma) 35.4 nM | GI50 (M14 melanoma) 69.6 nM | GI50 (COLO 205 colon) 54.6 nM | GI50 (NCI/ADR-RES ovarian) 24 nM | GI50 (UO-31 renal) 134 nM | GI50 (EKVX NSCLC) 49.8 nM | GI50 (OVCAR-8 ovarian) 33.2 nM | GI50 (UACC-62 melanoma) 82.5 nM | GI50 (786-0 renal) 76.2 nM | GI50 (CCRF-CEM leukemia) 35.6 nM | GI50 (RXF 393 renal) 41.7 nM | GI50 (A549 NSCLC) 43.8 nM | GI50 (SNB-75 CNS) 44.4 nM | GI50 (SK-MEL-2 melanoma) 48.3 nM | GI50 (MALME-3M melanoma) 61 nM | GI50 (U251 CNS) 34 nM | GI50 (HCT-15 colon) 34.8 nM | GI50 (HCT-116 colon) 35.3 nM | GI50 (SF-268 CNS) 300 nM | GI50 (RPMI-8226 leukemia) 49.2 nM | GI50 (DU-145 prostate) 59.6 nM | GI50 (BT-549 breast) 55.5 nM | GI50 (CAKI-1 renal) 68.1 nM | GI50 (OVCAR-3 ovarian) 40.8 nM | GI50 (HOP-62 NSCLC) 41.1 nM | GI50 (NCI-H522 lung) 20.9 nM | GI50 (NCI-H226 lung) 36.2 nM | GI50 (K-562 leukemia) 30.6 nM | GI50 (SK-OV-3 ovarian) 32.5 nM
37200 nM: TGI (NCI-H226 lung)
inactive: GI50 (OVCAR-4 ovarian) 3980 nM | GI50 (T-47D breast) 24300 nM | GI50 (SK-MEL-28 melanoma) 13400 nM | GI50 (A498 renal) 8560 nM | GI50 (TK-10 renal) 15100 nM | GI50 (UACC-257 melanoma) 13000 nM | GI50 (HOP-92 NSCLC) 6020 nM
56.7 nM: TGI (SF-539 CNS)
51100 nM: TGI (RXF 393 renal)
42300 nM: TGI (UACC-62 melanoma)
32400 nM: TGI (ACHN renal)
44100 nM: TGI (NCI-H23 lung)
31600 nM: TGI (MOLT-4 leukemia)
11500 nM: TGI (HT29 colon)
